Key:
[1] = tested on: M. tuberculosis H37Rv; assay: MIC determination, resazurin microplate assay; type: cell-based; conditions: Mycobacterium tuberculosis, 120 h, five days, range 100-0.78 µM
[2] = tested on: methicillin-resistant Staphylococcus aureus; assay: MIC quantified via the BacTiter-Glo assay; type: cell-based; conditions: methicillin-resistant strain; 24 h
Description: (§1) The MICs of compounds according to formulas (2), (3), (4), (7), (11), (12) and (18) were additionally quantified via the BacTiter-Glo™ assay (Promega, Madison, WI, USA). Briefly, after an incubation time of 24 h, each well was resuspended by pipetting, and 50 µL aliquots were transferred into an opaque-walled multiwell plate. Additionally, control wells containing medium without cells to determine background luminescence were prepared. 50 µL BacTiter-Glo™ reagent were added to each well. Contents were mixed and incubated for five minutes at room temperature. Luminescence was measured using a microplate reader. Growth was calculated relative to the background luminescence (0% growth) and a compound-free DMSO control (100% growth).

[3] = tested on: methicillin-sensitive Staphylococcus aureus; assay: MIC quantified via the BacTiter-Glo assay; type: cell-based; conditions: methicillin-sensitive strain; 24 h
Description: as §1

[4] = tested on: human fetal lung fibroblast cell line MRC-5; assay: Cytotoxicity, resazurin assay; type: cell-based; conditions: MRC-5 cells, 48 h
Description: (§2) The cytotoxicity of the compounds according to formulas (2), (3) and (4) and according to formulas (7), (11), (12) and (18) was determined in vitro using the human monocyte cell line THP-1 (Deutsche Sammlung von Mikroorganismen und Zellkulturen GmbH) and the human fetal lung fibroblast cell line MRC-5 (American Type Culture Collection).
(§3) THP-1 cells were cultured in RPMI 1640 medium containing 10% (v/v) fetal bovine serum (FBS), while MRC-5 cells were incubated in Dulbecco's Modified Eagles Medium (DMEM) containing 10% (v/v) FBS both at 37°C in a humidified atmosphere of 5% CO2. […] Cells treated with DMSO in a final concentration of 1% (v/v) served as DMSO toxicity controls. After an incubation time of 48 h, 10 µL resazurin solution (100 µg/mL) were added per well and incubated for further 3 h at 37°C in a humidified atmosphere of 5% CO2. Fluorescence was quantified using a microplate reader (excitation 540 nm, emission 590 nm). Growth was calculated relative to non-inoculated (i.e. cell-free) (0% growth) and untreated (100% growth) controls in triplicate experiments, respectively. For determination of the therapeutic index of the tested substances, the selectivity index (SI) was determined by the quotient of cytotoxic concentration and MIC. Compounds with SI ≥ 10 were characterized in further experiments.

[5] = tested on: human monocyte cell line THP-1; assay: Cytotoxicity, resazurin assay; type: cell-based; conditions: THP-1 cells, 48 h
Description: as §2, §3

[6] = tested on: Staphylococcus aureus MRSA strain ATCC 700699; assay: Time-kill curves in vitro (killing kinetics); type: cell-based; conditions: for bacteria amount: after 6 h at five-fold MIC, inoculum 10^6 CFU/mL; for killing effect: five-fold MIC
[7] = tested on: methicillin-resistant S. aureus (MRSA) strain ATCC 700699; assay: Frequency of spontaneous resistant mutants on compound-containing agar; type: cell-based, Staphylococcus aureus; conditions: agar with 3- and 5-fold MIC, 72 h, 37°C
[8] = tested on: resistant MRSA mutants; assay: Level of resistance of isolated resistant mutants (dose-response); type: cell-based, Staphylococcus aureus
[9] = tested on: S. aureus ATCC 25923; assay: MIC by broth microdilution method (CLSI); conditions: Staphylococcus aureus, ATCC25923, 24 h
Description: (§4) The compounds were tested for their antibacterial activities against the pathogenic nosocomial strains of Staphylococcus aureus, Enterococcus faecalis Enterococcus faecium, Acinetobacter baumannii. The minimal inhibitory concentration (MIC) was determined by the broth microdilution method according to the recommendations of the Clinical and Laboratory Standards Institute (CLSI) (CLSI M7-A9, 2012). For preparation of the inoculum the growth method was used. Bacterial cells were grown aerobically in Muller Hinton (MH) medium at 37°C and 180 rpm. A preculture was grown until log phase (OD600 nm ∼ 0.5) and then seeded at 5 x 10^4 bacteria/well in a total volume of 100 µL in 96 well round bottom microtiter plates and incubated with serially diluted test substances at a concentration range of 100-0.78 µM. The compounds were screened in two-fold serial dilution. Microplates were incubated aerobically at 37°C for 24 h. MICs were determined by identifying the minimum concentration of the compounds that led to complete inhibition of visual growth of the bacteria.

[10] = tested on: MRSA ATCC 700699; assay: MIC by broth microdilution method (CLSI); conditions: for MIC: Staphylococcus aureus, 24 h
Description: as §4

[11] = tested on: E. faecalis ATCC 29212; assay: MIC by broth microdilution method (CLSI); conditions: Enterococcus faecalis, ATCC29212, 24 h
Description: as §4

[12] = tested on: E. faecalis ATCC 51299; assay: MIC by broth microdilution method (CLSI); conditions: Enterococcus faecalis, ATCC51299, 24 h
Description: as §4

[13] = tested on: E. faecium ATCC 35667; assay: MIC by broth microdilution method (CLSI); conditions: Enterococcus faecium, ATCC35667, 24 h
Description: as §4

[14] = tested on: VR E. faecium ATCC 700221; assay: MIC by broth microdilution method (CLSI); conditions: Enterococcus faecium, ATCC700221, 24 h
Description: as §4

[15] = tested on: Methicillin resistant S. aureus (MRSA; ATCC 700699); assay: Resistance development during time-kill kinetics; type: cell-based, Staphylococcus aureus; conditions: after 6 and 24 h of incubation, plated on agar with 5x MIC
Description: Additionally, the resistance rate of the cultures was determined after 6 and 24 h of incubation. For this, 20 µL of the cultures were plated on 1 mL MH agar containing the five-fold MIC of the compounds (for the compound according to formula (2) and (4): 2 µM, for the compound according to formula (3): 8 µM). After an incubation time of 24 h at 37°C, the colonies were counted. The resistance rate was determined as quotient of the number of resistant colonies on compound containing agar and the total amount of viable bacteria at the corresponding time points.
Two independent cultures C1 and C2 were tested for each attempt. Compounds were tested at 5x MIC resulting in 0.02-0.08% DMSO final concentration. In an independent experiment, medium was replaced and compounds were freshly added after 6 h, denoted "freshly added" in the Figure. 20 µL of different dilution of the cultures after either 6 or 24 h of incubation were plated out on MH agar containing either no antibiotics, which is denoted (*) or the compounds of formulas (2) and (3) at 5x MIC, respectively.

SMILES | MIC [1] [µM] | inhibition of Staphylococcus aureus (BacTiter-Glo) [2] | inhibition of Staphylococcus aureus (BacTiter-Glo) [3] | cytotoxic (inhibitory) concentration [4] [µM] | cytotoxic (inhibitory) concentration [5] [µM] | bacteria amount [6] | amount of surviving bacteria ([6]; after 24 h at five-fold MIC, limit of detection 10^1) | killing effect [6] | frequency of spontaneous resistant mutants [7] | MIC for the mutants relative to the parent MRSA strain ([8]; mutants 9-RM, 1-RM, 9-RM-5x versus MRSA WT) [fold] | resistance of clones resistant against formula (2) towards the tested compound ([8]; two tested clones (1-RM)) | MIC [9] [µM] | MIC [10] [µM] | MIC [11] [µM] | MIC [12] [µM] | MIC [13] [µM] | MIC [14] [µM] | viability of the culture ([6]; compound freshly added to washed cells after 6 h, initial further decrease) | level of resistance in treated cultures [15] | concentrations at which a decreased inhibitory effect could be observed ([10]; paradoxical effect, assumed aggregation and precipitation) [µM]
Clc1ccc2[nH]cc(-c3cnc(-c4c[nH]c5ccc(Cl)cc45)nc3)c2c1 [formula (4), 3,3'-(pyrimidine-2,5-diyl)bis(5-chloro-1H-indole)] | 50 | effectively inhibited | effectively inhibited | > 12.5 | > 12.5 | < 10^1 CFU/mL | < 10^1 CFU/mL | strong bactericidal killing effect | 5×10^-5 | 8 | showed cross-resistance | 6.25 | 0.39 | 3.12 | 12.5 | 1.56 | 1.56 | – | – | –
Clc1ccc2[nH]cc(-c3cnc(-c4c[nH]c5ccc(Cl)cc45)cn3)c2c1 [formula (2), 2,5-bis(5-chloro-1H-indole-3-yl)pyrazine] | > 100 | effectively inhibited | effectively inhibited | 12.5 | 12.5 | 10^4 CFU/mL | – | strong bactericidal killing effect | 5×10^-7 | – | – | > 100 | 0.39 | > 100 | > 100 | > 100 | > 100 | 10^2 CFU/mL | no significant level of resistance was detectable | ≥ 3.125
